Measured values as given in patent US10568950B1, “Peptides, combination of peptides and scaffolds for use in immunotherapeutic treatment of various cancers” (Immatics Biotechnologies GmbH, priority 2015, dated 2020).

Columns and labels:
[1] = test system: HLA-A*24; assay: MHC binding assay: UV-ligand exchange, beta2m ELISA (peptide exchange yield); parameters: species or system human; details: binding to HLA-A*24, β2m ELISA
Excerpt: (§1) Candidate peptides for T cell based therapies according to the present invention were further tested for their MHC binding capacity (affinity). The individual peptide-MHC complexes were produced by UV-ligand exchange, where a UV-sensitive peptide is cleaved upon UV-irradiation, and exchanged with the peptide of interest as analyzed. Only peptide candidates that can effectively bind and stabilize the peptide-receptive MHC molecules prevent dissociation of the MHC complexes. To determine the yield of the exchange reaction, an ELISA was performed based on the detection of the light chain (β2m) of stabilized MHC complexes. The assay was performed as generally described in Rodenko et al. (Rodenko et al., 2006).
(§2) 96 well MAXISorp plates (NUNC) were coated over night with 2 ug/ml streptavidin in PBS at room temperature, washed 4× and blocked for 1 h at 37° C. in 2% BSA containing blocking buffer. […] Peptide-MHC monomers of the UV-exchange reaction were diluted 100 fold in blocking buffer. Samples were incubated for 1 h at 37° C., washed four times, incubated with 2 ug/ml HRP conjugated anti-βm for 1 h at 37° C., washed again and detected with TMB solution that is stopped with […]. Absorption was measured at 450 nm. Candidate peptides that show a high exchange yield (preferably higher than 50%, most preferred higher than 75%) are generally preferred for a generation and production of antibodies or fragments thereof, and/or T cell receptors or fragments thereof, as they show sufficient avidity to the MHC molecules and prevent dissociation of the MHC complexes.

[2] = molecular target: HLA-A*02 (Homo sapiens, UniProt P04439, D140Y/D185E/D98H/E176V/E277Q/G131W/G231S/I119V/I121R/I166T/I218V/N151K/N90K/P208A/P217A/Q86G/Q94H/R138H/R169H); assay: as above; details: binding to HLA-A*02, β2m ELISA
Excerpt: as §1, §2

Substance	Peptide exchange (MHC class I binding score, peptide exchange yield) [1]	Peptide exchange (MHC class I binding score, peptide exchange yield) [2]
97 (TYTFLKETF; listed as Homo sapiens) [compound 97]	++++ (>= 75% = ++++)	–
149 (SYGTVSQI; listed as Homo sapiens) [compound 149]	++++ (>= 75% = ++++)	–
153 (VYVPFGGKSMITF; listed as Homo sapiens) [compound 153]	++++ (>= 75% = ++++)	–
173 (QYLEKYYNL; listed as Homo sapiens) [compound 173]	++++ (>= 75% = ++++)	–
184 (IYSVGAFENF; listed as Homo sapiens) [compound 184]	++++ (>= 75% = ++++)	–
196 (GYIRGSWQF; listed as Homo sapiens) [compound 196]	++++ (>= 75% = ++++)	–
197 (IFTDIFHYL; listed as Homo sapiens) [compound 197]	++++ (>= 75% = ++++)	–
206 (NYLDVATFL; listed as Homo sapiens) [compound 206]	++++ (>= 75% = ++++)	–
208 (TYLEKIDGF; listed as Homo sapiens) [compound 208]	++++ (>= 75% = ++++)	–
209 (AFIETPIPLF; listed as Homo sapiens) [compound 209]	++++ (>= 75% = ++++)	–
221 (KYIGNLDLL; listed as Homo sapiens) [compound 221]	++++ (>= 75% = ++++)	–
248 (AFPTFSVQL; listed as Homo sapiens) [compound 248]	++++ (>= 75% = ++++)	–
249 (RYHPTTCTI; listed as Homo sapiens) [compound 249]	++++ (>= 75% = ++++)	–
252 (AFGQETNVPLNNF; listed as Homo sapiens) [compound 252]	++++ (>= 75% = ++++)	–
260 (VYMNVMTRL; listed as Homo sapiens) [compound 260]	++++ (>= 75% = ++++)	–
261 (GYIKLINFI; listed as Homo sapiens) [compound 261]	++++ (>= 75% = ++++)	–
262 (VYSSQFETI; listed as Homo sapiens) [compound 262]	++++ (>= 75% = ++++)	–

Substance	Peptide exchange (MHC class I binding score, peptide exchange yield) [1]	Peptide exchange (MHC class I binding score, peptide exchange yield) [2]
265 (SYLNEAFSF; listed as Homo sapiens) [compound 265]	++++ (>= 75% = ++++)	–
275 (KYGTLDVTF; listed as Homo sapiens) [compound 275]	++++ (>= 75% = ++++)	–
276 (QYLDVLHAL; listed as Homo sapiens) [compound 276]	++++ (>= 75% = ++++)	–
280 (TYNPNLQDKL; listed as Homo sapiens) [compound 280]	++++ (>= 75% = ++++)	–
286 (SYGTILSHI; listed as Homo sapiens) [compound 286]	++++ (>= 75% = ++++)	–
289 (FFHEGQYVF; listed as Homo sapiens) [compound 289]	++++ (>= 75% = ++++)	–
292 (FYPQIINTF; listed as Homo sapiens) [compound 292]	++++ (>= 75% = ++++)	–
293 (VYPHFSTTNLI; listed as Homo sapiens) [compound 293]	++++ (>= 75% = ++++)	–
296 (SYQVIFQHF; listed as Homo sapiens) [compound 296]	++++ (>= 75% = ++++)	–
298 (AYKSEVVYF; listed as Homo sapiens) [compound 298]	++++ (>= 75% = ++++)	–
305 (NYENKQYLF; listed as Homo sapiens) [compound 305]	++++ (>= 75% = ++++)	–
319 (KYSDVKNLI; listed as Homo sapiens) [compound 319]	++++ (>= 75% = ++++)	–
333 (GTFLEGVAK; listed as Homo sapiens) [compound 333]	–	+++ (50%-75% = +++)
336 (GLMDGSPHFL; listed as Homo sapiens) [compound 336]	–	++ (20%-49% = ++)
337 (KVLGKIEKV; listed as Homo sapiens) [compound 337]	–	+++ (50%-75% = +++)
338 (LLYDGKLSSA; listed as Homo sapiens) [compound 338]	–	++ (20%-49% = ++)
340 (SVAKTILKR; listed as Homo sapiens) [compound 340]	–	++ (20%-49% = ++)

Now from value to substance:

Peptide exchange (MHC class I binding score, peptide exchange yield) [1]	Peptide exchange (MHC class I binding score, peptide exchange yield) [2]	Substance
++++ (>= 75% = ++++)	–	116 (AYVIAVHLF; listed as Homo sapiens) [compound 116]
++++ (>= 75% = ++++)	–	128 (VYPFDWQYI; listed as Homo sapiens) [compound 128]
++++ (>= 75% = ++++)	–	129 (KYIDYLMTW; listed as Homo sapiens) [compound 129]
++++ (>= 75% = ++++)	–	135 (VYEAMVPLF; listed as Homo sapiens) [compound 135]
++++ (>= 75% = ++++)	–	148 (SYGTVSQIF; listed as Homo sapiens) [compound 148]
++++ (>= 75% = ++++)	–	154 (VYGVPTPHF; listed as Homo sapiens) [compound 154]
++++ (>= 75% = ++++)	–	185 (QYLVHVNDL; listed as Homo sapiens) [compound 185]
++++ (>= 75% = ++++)	–	187 (AYAANVHYL; listed as Homo sapiens) [compound 187]
++++ (>= 75% = ++++)	–	210 (IYAGVGEFSF; listed as Homo sapiens) [compound 210]
++++ (>= 75% = ++++)	–	211 (VFKSEGAYF; listed as Homo sapiens) [compound 211]
++++ (>= 75% = ++++)	–	217 (IYISNSIYF; listed as Homo sapiens) [compound 217]
++++ (>= 75% = ++++)	–	220 (SYSEIKDFL; listed as Homo sapiens) [compound 220]
++++ (>= 75% = ++++)	–	223 (TFITQSPLL; listed as Homo sapiens) [compound 223]
++++ (>= 75% = ++++)	–	231 (AFADVSVKF; listed as Homo sapiens) [compound 231]
++++ (>= 75% = ++++)	–	264 (LYTETRLQF; listed as Homo sapiens) [compound 264]
++++ (>= 75% = ++++)	–	271 (RFLMKSYSF; listed as Homo sapiens) [compound 271]
++++ (>= 75% = ++++)	–	272 (RYVFPLPYL; listed as Homo sapiens) [compound 272]
++++ (>= 75% = ++++)	–	274 (KQLDIANYELF; listed as Homo sapiens) [compound 274]
++++ (>= 75% = ++++)	–	290 (KYGDFKLLEF; listed as Homo sapiens) [compound 290]
++++ (>= 75% = ++++)	–	297 (TYIDTRTVF; listed as Homo sapiens) [compound 297]
++++ (>= 75% = ++++)	–	301 (KFDDVTMLF; listed as Homo sapiens) [compound 301]
++++ (>= 75% = ++++)	–	311 (EYLQNLNHI; listed as Homo sapiens) [compound 311]
++++ (>= 75% = ++++)	–	313 (KYTHFIQSF; listed as Homo sapiens) [compound 313]
–	+++ (50%-75% = +++)	334 (GRADALRVL; listed as Homo sapiens) [compound 334]
–	++ (20%-49% = ++)	335 (VLLAAGPSAA; listed as Homo sapiens) [compound 335]
–	++ (20%-49% = ++)	339 (VLGPGPPPL; listed as Homo sapiens) [compound 339]
